This assay addresses T1, recombinant human MAS1 (Homo sapiens, UniProt P04201).
T1 construct: expressed in transfected cells; host or cells: CHO cells stably transfected with pTEJ-8 vector
T1 sequence (P04201 1-325): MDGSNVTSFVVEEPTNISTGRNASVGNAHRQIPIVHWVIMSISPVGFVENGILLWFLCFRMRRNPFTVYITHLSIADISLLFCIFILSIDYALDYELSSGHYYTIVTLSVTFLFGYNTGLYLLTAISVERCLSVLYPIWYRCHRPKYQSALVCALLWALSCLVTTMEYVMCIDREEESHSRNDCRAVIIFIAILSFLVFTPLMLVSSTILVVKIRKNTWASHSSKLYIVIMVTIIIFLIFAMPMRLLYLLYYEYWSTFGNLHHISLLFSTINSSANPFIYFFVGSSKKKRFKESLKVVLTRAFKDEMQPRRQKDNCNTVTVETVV
Kind of assay: MAS1 receptor activation, cell-based fluorescence assay of NO release in CHO cells. The conditions noted are these: absence of antagonist, MAS1 stably transfected CHO cells, 2 h incubation, two experiments. Here is the method:
Next, we tested the ability of cyclotide MCo-AT1-7 to activate the MAS1 receptor using CHO cells stably transfected with pTEJ-8 vector expressing recombinant human MAS1 in a cell-based fluorescence assay to detect the amount of NO release (Figure 5). […] The activity of the cyclotide MCo-AT1-7 was estimated to be ≈90% of that of peptide AT1-7 at 10 nM in this assay.
CHO cells stably transfected with pTEJ-8 vector expressing recombinant human MAS1 clone are grown to confluency. After washing, cells were incubated for a short time in 700 µL of supplemented Tyrode’s salts containing 10 µM 2-phenyl-4,4,5,5-tetramethylimidazoline-1-oxyl-3-oxide (PTIO), 100 µM 2,6-diaminonaftalene (DAN), and 1 mM L-arginine. When using antagonist for competition assays, cells are exposed to MAS1 antagonist A779 (D-Ala^7-AT 1-7) at 0.1 µM for 15 min before addition of the cyclotides to be tested. Different concentrations of the cyclotides to be analyzed are added to the cell medium and the plates are agitated for 1 min before being placed into the incubator for 2 h. After 2 h, the cellular supernatants are transferred to opaque 96 well plates, and the amount of released NO is measured by fluorescence (λex = 380 nm, λem = 425 nm).

For the compound `CC[C@H](C)[C@H](NC(=O)[C@H](Cc1ccc(O)cc1)NC(=O)[C@@H](NC(=O)[C@H](CCCNC(=N)N)NC(=O)[C@@H](N)CC(=O)O)C(C)C)C(=O)N[C@@H](Cc1c[nH]cn1)C(=O)N1CCC[C@H]1C(=O)O` [AT1-7, angiotensin (1-7)], the “MAS1 activation: increase of intracellular NO concentration” value was “increase the intracellular concentration of NO in a dose dependent manner”.
